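Interpolation was linear, between the two tested concentrations surrounding the appropriate level; five concentrations were tested over 48 hours in 96-well plates. GI50: concentration for 50% inhibition of growth. TGI denotes the concentration required for complete inhibition of growth.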
Experiments:
Assay in all cases: NCI-60 cell line screen, 48 h
[1] = system: RPMI-8226 leukemia
[2] = system: U251 CNS
[3] = system: MCF7 breast
[4] = system: HCT-116 colon
[5] = system: NCI-H226 lung
[6] = system: UACC-257 melanoma
[7] = system: M14 melanoma
[8] = system: CAKI-1 renal
[9] = system: SF-268 CNS
[10] = system: HCC-2998 colon

Row | SMILES | GI50 [1] | TGI [1] | GI50 [2] | TGI [2] | GI50 [3] | TGI [3] | GI50 [4] | TGI [4] | GI50 [5] | TGI [5] | GI50 [6] | TGI [6] | GI50 [7] | TGI [7] | GI50 [8] | TGI [8] | GI50 [9] | TGI [9] | TGI [10] | GI50 [10]
1 | C[C@]12CC[C@@H]3c4ccc(Oc5nc(N6CC6)nc(N6CC6)n5)cc4CC[C@H]3[C@@H]1CCC2=O | 2.17 µM | 7.58 µM | 2 µM | 11.7 µM | 2.78 µM | 14.7 µM | 2.46 µM | 18.8 µM | 3.23 µM | 30.8 µM | 2.89 µM | 17.5 µM | 3.58 µM | 21.7 µM | 0.641 µM | 43.7 µM | 2.05 µM | 17.9 µM | – | –
2 | Nc1c(-c2ccc(Br)cc2)[n+]([O-])c2ccccc2[n+]1[O-] | – | 78.3 µM | – | > 100 µM | – | – | – | > 100 µM | – | > 100 µM | – | > 100 µM | – | > 100 µM | – | > 100 µM | – | > 100 µM | – | –
3 | CSc1ccc(/C=C2/C[N+](C)(C)C/C(=C/c3ccc(SC)cc3)C2=O)cc1 | – | 9.92 µM | – | 7.92 µM | – | – | – | – | – | 72.5 µM | – | 37.8 µM | – | 28.8 µM | – | – | – | 22.7 µM | 34 µM | –
4 | CCC(C)(O)c1cn(-c2cccc(S(=O)(=O)O)c2)nn1 (centres undefined) | – | > 100 µM | – | > 100 µM | – | – | – | > 100 µM | – | > 100 µM | – | > 100 µM | – | > 100 µM | – | > 100 µM | – | > 100 µM | > 100 µM | –
5 | CCOC(=O)NC(=O)c1cn(CCCOC(=O)NCCCCCCNC(=O)OCCCn2c(=O)c(C(=O)NC(=O)OCC)cn(C)c2=O)c(=O)n(C)c1=O | – | > 100 µM | – | > 100 µM | – | – | – | > 100 µM | – | > 100 µM | – | > 100 µM | – | > 100 µM | – | > 100 µM | – | > 100 µM | > 100 µM | –
6 | C=C1C(=O)O[C@H]2[C@H]1CC/C(COC(=O)/C=C\C(=O)NCc1ccc(Cn3c(=O)sn(-c4ccc(C#N)cc4)c3=O)cc1)=C\CC[C@@]1(C)O[C@@H]21 | 0.443 µM | 2.59 µM | 0.759 µM | 1.62 µM | – | – | 0.218 µM | 0.956 µM | 1.36 µM | 5.63 µM | 0.812 µM | 1.66 µM | 0.699 µM | 1.66 µM | 0.354 µM | 1.08 µM | 0.724 µM | 1.41 µM | 1.76 µM | 0.901 µM
7 | CN(C)C(=S)/N=c1\ss/c(=N\C(=S)N(C)C)n1-c1ccc2c(c1)OCO2 | – | – | – | > 100 µM | – | – | – | > 100 µM | – | > 100 µM | – | > 100 µM | – | > 100 µM | – | > 100 µM | – | > 100 µM | > 100 µM | –
8 | CCc1cccc(C)c1NC(C)=O | – | > 100 µM | – | > 100 µM | – | – | – | > 100 µM | – | > 100 µM | – | > 100 µM | – | > 100 µM | – | > 100 µM | – | – | > 100 µM | –
9 | CCOC(=O)[C@H]1Nc2ccc(C)cc2C2c3ccccc3CC21 (some centres undefined) | – | > 100 µM | – | > 100 µM | – | – | – | > 100 µM | – | > 100 µM | – | > 100 µM | – | > 100 µM | – | > 100 µM | – | > 100 µM | > 100 µM | –
10 | Cc1ccc(NC(=O)C2C(=O)N(c3ccc(C)c(C)c3)C(=O)/C2=N/O)cc1C (centres undefined) | – | > 100 µM | – | > 100 µM | – | – | – | > 100 µM | – | > 100 µM | – | > 100 µM | – | > 100 µM | – | > 100 µM | – | > 100 µM | > 100 µM | –
11 | CCCCC/C=C/C/C=C/CCCCCCCC1=NC(C)(C)CN1C(C)C | – | – | 1.53 µM | 2.87 µM | 1.54 µM | 2.87 µM | – | – | – | – | 1.72 µM | 3.2 µM | 1.85 µM | 3.4 µM | 1.3 µM | 2.57 µM | 1.68 µM | 3.05 µM | 3.06 µM | 1.67 µM
12 | CNC=O.[O]=[Ge].[O]=[Ge].[O]=[Ge].[O]=[Ge][OH].[O]=[Ge][OH] | – | > 100 µM | – | – | – | – | – | > 100 µM | – | > 100 µM | – | > 100 µM | – | > 100 µM | – | > 100 µM | – | > 100 µM | > 100 µM | –
13 | O=S(O)CCCCSSCCCCSSCCCCS(=O)O | – | – | – | > 100 µM | – | – | – | > 100 µM | – | – | – | > 100 µM | – | 26.5 µM | – | > 100 µM | – | > 100 µM | > 100 µM | –
14 | N#CCCN(CCC#N)c1ccc(C(=O)NN)cc1 | – | > 100 µM | – | > 100 µM | – | – | – | > 100 µM | – | > 100 µM | – | > 100 µM | – | > 100 µM | – | > 100 µM | – | > 100 µM | > 100 µM | –
15 | COC(=O)C(=O)C(C(=O)C(=O)Nc1ccc(C)cc1C)c1nc2ccccc2[nH]c1=O (centres undefined) | – | > 100 µM | – | > 100 µM | – | – | – | > 100 µM | – | > 100 µM | – | > 100 µM | – | > 100 µM | – | 68.9 µM | – | > 100 µM | > 100 µM | –
16 | Cc1cccc(C(C)(C)C)c1NC(=O)CCc1n[nH]c(=S)o1 | – | 51.6 µM | – | > 100 µM | – | – | – | 33.9 µM | – | 0.832 µM | – | > 100 µM | – | > 100 µM | – | > 100 µM | – | > 100 µM | > 100 µM | –
17 | NCCCNCCSSCCCCS(=O)O | – | > 100 µM | – | > 100 µM | – | – | – | 70.2 µM | – | > 100 µM | – | 78.5 µM | – | 44.2 µM | – | > 100 µM | – | 40.6 µM | > 100 µM | –
18 | CCN(CC)C(=O)C/C(C)=N/NC(=O)c1ccncc1 | – | > 100 µM | – | > 100 µM | – | – | – | > 100 µM | – | > 100 µM | – | > 100 µM | – | > 100 µM | – | – | – | > 100 µM | > 100 µM | –
19 | Cc1c2c(nn1-c1ccc(S(=O)(=O)/N=C3\SCC(=O)N3C(=O)c3ccccc3)cc1)-c1ccccc1CC2 | – | – | 23.3 µM | 62.4 µM | – | – | 26.4 µM | 58.8 µM | 24 µM | 56.4 µM | 92.5 µM | > 100 µM | 22.9 µM | 47.1 µM | 26.6 µM | 65.9 µM | 44.6 µM | > 100 µM | > 100 µM | 98.6 µM
20 | O=C1C2=C(CC3C(C2)C3(Br)Br)C(=O)C2=C1CC1C(C2)C1(Br)Br (centres undefined) | – | – | – | > 100 µM | – | – | – | > 100 µM | – | > 100 µM | – | > 100 µM | – | > 100 µM | – | > 100 µM | – | > 100 µM | > 100 µM | –
21 | Cc1cccc(N2C(=O)C(Cl)=C(Cl)C2=O)c1 | – | > 78.9 µM | – | > 100 µM | – | – | – | > 100 µM | – | > 100 µM | – | > 100 µM | – | > 100 µM | – | > 56.9 µM | – | > 100 µM | > 100 µM | –
